pIC50: −log10 of the molar value. The source made the active and inactive calls. The rule behind the calls is not given here.
Columns and labels:
A549 = experiment: Antiproliferative activity against human A549 cells assessed as cell growth inhibition incubated for 72 hrs by sulforhodamine B assay; format: functional, cell-based; details: A549, 72 h
MCF7 = experiment: Antiproliferative activity against human MCF7 cells assessed as cell growth inhibition incubated for 72 hrs by sulforhodamine B assay; format: functional, cell-based; details: MCF7, 72 h
KB = experiment: Antiproliferative activity against human KB cells assessed as cell growth inhibition incubated for 72 hrs by sulforhodamine B assay; format: functional, cell-based
MDA-MB-231 [1] = experiment: Antiproliferative activity against human MDA-MB-231 cells assessed as cell growth inhibition incubated for 72 hrs by sulforhodamine B assay; format: functional, cell-based; details: MDA-MB-231, 72 h
[2] = Antiproliferative activity against human KB-VIN cells assessed as cell growth inhibition incubated for 72 hrs by sulforhodamine B assay; format: functional, cell-based; details: KBVIN
MDA-MB-231 [3] = experiment: Induction of cell cycle arrest in human MDA-MB-231 cells assessed as accumulation of cells at G2/M phase at IC50 incubated for 24 hrs by propidium iodide staining based flow cytometry; format: functional
MDA-MB-231 [4] = experiment: Induction of cell cycle arrest in human MDA-MB-231 cells assessed as accumulation of cells at sub-G1 phase at 8 x IC50 incubated for 24 hrs by propidium iodide staining based flow cytometry; format: functional
MDA-MB-231 [5] = experiment: Induction of nuclear fragmentation in human MDA-MB-231 cells at 8 x IC50 incubated for 24 hrs by propidium iodide staining based flow cytometry; format: functional, cell-based
MDA-MB-231 [6] = experiment: Induction of cell cycle arrest in human MDA-MB-231 cells assessed as accumulation of cells at G2/M phase at IC50 x 8 incubated for 24 hrs by propidium iodide staining based flow cytometry; format: functional

Row | pIC50 (A549) | pIC50 (MCF7) | pIC50 (KB) | pIC50 (MDA-MB-231 [1]) | SMILES | pIC50 [2] | Activity (MDA-MB-231 [3]) | Activity (MDA-MB-231 [4]) | Activity (MDA-MB-231 [5]) | Activity (MDA-MB-231 [6])
1 | < 4.40 | < 4.40 | 4.49 | < 4.40 | C[C@H]1[C@H](O)C=CC2=CC(=O)CC[C@@]21C | < 4.40 |  |  |  | 
2 | 4.54 | 4.80 | 5.02 | 4.51 | CC(=O)C1=C(O)C=C2C=CC(=O)[C@H](C)[C@@]2(C)C1 | 4.59 |  |  |  | 
3 | < 4.40 | < 4.40 | < 4.40 | < 4.40 | C[C@H]1C(=O)C=CC2=CC(=O)CC[C@@]21C | < 4.40 |  |  |  | 
4 | < 4.40 | < 4.40 | < 4.40 | < 4.40 | CC(=O)C1=C(O)C=C2C=C[C@H](O)[C@H](C)[C@@]2(C)C1 | < 4.40 |  |  |  | 
5 | 4.60 | 4.77 | 4.74 | 5.19 | C[C@H]1C(=O)C=C(Br)C2=CC(=O)CC[C@@]21C | 4.72 | Active | Active | Active | 
6 | 4.46 | 4.44 | 4.54 | 4.49 | C[C@H]1[C@H](O)C=C(Br)C2=CC(=O)CC[C@@]21C | 4.43 |  |  |  | 
7 | 5.10 | 5.16 | 5.30 | 5.28 | CC(=O)C1=C(O)C=C2C(Br)=CC(=O)[C@H](C)[C@@]2(C)C1 | 5.10 | Active |  |  | 
8 | 8.27 | 7.96 |  |  | CC(=O)O[C@H]1C(=O)[C@@]2(C)[C@H]([C@H](OC(=O)c3ccccc3)[C@]3(O)C[C@H](OC(=O)[C@H](O)[C@@H](NC(=O)c4ccccc4)c4ccccc4)C(C)=C1C3(C)C)[C@]1(OC(C)=O)CO[C@@H]1C[C@@H]2O [PACLITAXEL] | 5.62 |  |  |  | 
9 | 4.72 | 4.89 | 4.82 | 5.28 | CC(=O)C1=C(O)C=C2C(Br)=C[C@H](O)[C@H](C)[C@@]2(C)C1 | 4.74 | Active |  |  | Active

From ChEMBL document CHEMBL5335831, “Total Synthesis of a TNBC-Selective Cytotoxic Bromo Nor-eremophilane, PC-A, and Its Preliminary Structure-Activity Relationships” (J Nat Prod, 2024)
